We go through 1 sequence from patent US7271239B2, “D-isomers of antimicrobial peptide” (The Research Foundation of State University of New York, priority 2004, dated 2007).

Like-named read-outs stand apart in the source and are kept apart here. Where no end group is shown, it is not given here.

In series [1] the test system is HOK-16B cells. Description: MTS cell viability assay. It counts as cell-based, human. The settings on record: 200 μM. On the procedure: FIG. 6. Effect of peptides on viability of (A) HOK-16B cells and (B) KB cells. The toxic effect of the compounds on the cells was determined by calorimetric assay using a CellTiter 96 AQueous One Solution cell proliferation assay (MTS) kit, as described in the text. Briefly, the cells were grown to about 80% confluence, harvested, washed, resuspended in KGM, and dispensed into a 96-well microtiter plate. They were then exposed to different concentrations of peptides or amphotericin B at 37° C. and 5% CO2 for 1.5 h. MTS agent was then added to each well, and the cells were further incubated for 4 h. Absorbance at 490 nm was then measured using a microplate reader. MTS reduction is an indication of cell viability. The viability is expressed as relative absorbance (percentage of no-agent control). Data represent the average and standard deviation of results from two independent experiments.
Cell culture. The HOK-16B cell line (originated from primary normal human keratinocytes) was kindly provided by No-Hee Park, UCLA School of Dentistry. The KB cell line was obtained from the American Type Culture Collection (CLL-17). […]
MTS cell viability assay. The toxic effect of the compounds on the cells was determined by calorimetric assay using a CellTiter 96 AQueous One Solution cell proliferation assay (MTS) kit (Promega, Wis.). […] Absorbance at 490 nm was then measured using a microplate reader. […]
Background: Tetrazolium assays rely on reduction of a dye to a coloured formazan, in cell work by metabolically active cells.

The subject of series [2] is C. albicans DIS. The series can be described thus: Killing assay in whole human saliva. How it is done: FIG. 1. Candidacidal activity of MUC7 12-mer-L, MUC7 12-mer-D, Hsn5 12-mer, and Magainin-II in whole human saliva (WHS). Each peptide at final concentration of 25, 50, and 100 μM was incubated with C. albicans (DIS isolate at 1×10^5 cells/ml) and 20 μl of clarified or unclarified saliva (SL; hatched bars), saliva containing Protease inhibitor cocktail (PIC) (SL+PIC; filled bars), or saliva containing ethylenediamine tetraacetic acid (EDTA) (SL+EDTA; clear bars) at 37° C. for 1.5 h. At the end of incubation, the samples were diluted 20-fold and aliquots plated on SDA. The colony forming units (CFU) were counted after 24 h of incubation. The loss of C. albicans viability was determined by the equation (1−CFU of the test group/CFU of the control group)×100%. The data represent three individual trials, and in each trial the sample was duplicated; the error bars represent standard deviation.
FIG. 4. […] Stimulated whole saliva was collected from 5 healthy subjects. Peptides (50 μM) were incubated with C. albicans cells (1×10^5) in the each individual saliva containing PIC (SL+PIC) at 37° C. for 1.5 hr and the loss of the cell viability was determined. Values represent the mean±S.D. (n=5).
Killing assays in saliva. Unclarified saliva (unstimulated whole saliva) was collected from five healthy individuals during the fasting. Clarified saliva was obtained by passing the unclarified saliva through the 0.2 μm pore size sterile syringe filter (VWR scientific products, West Chester, Pa.). Candidacidal activity assays were performed as described previously (4), except the phosphate buffer was substituted with saliva. […] Saliva without peptides was a blank control. After incubation at 37° C. for 1.5 h, the reactions were diluted 20-fold in PB and aliquots (50 μl, ˜120 cells) of each sample were plated on SDA. The plates were incubated at 37° C. for 1 day aerobically and the number of colony-forming units (CFUs) was counted. Percentage of killing was calculated as (1−amount of viable cells in the test group)/(amount of viable cells in the control group)×100%.

Series [3] deals with C. glabrata 65C (azole-resistant clinical isolate). The class given is cell-based. The settings on record: clarified saliva. An excerpt:
Killing assays in saliva. […] Saliva without peptides was a blank control.
Activity of peptides in saliva against different candida strains. The in vitro candidacidal activities of MUC7 12-mer-L and D, Hsn5 12-mer, and Magainin-II against four Candida strains in clarified saliva are shown in Table 1. The data are presented as percent loss of cell viability compared to non-treated control. The following observations were made. […] In the presence of PIC, the activity values of MUC7 12-mer-L and of Magainin-II rose close to a 100% for all strains, but not that of Hsn5 peptide, which achieved the similar activity only against the C. albicans (ATCC strain). The activities against the other strains were much lower, in particular against both strains of C. glabrata (30-40%). […] This was true especially in saliva without PIC.

With GIGKFLHSAKKFGKAFVGEIMNS [Magainin-II], in series [1], the “loss of HOK-16B cell viability” value is “about 30%”. For the same sequence, the “candidacidal activity (killing)” value in series [2] (100 μM, clarified saliva, no PIC/EDTA) was determined as 0%. The sequence also came in with a killing in series [2] (100 μM, unclarified saliva, no PIC/EDTA) of 0%. Moreover, the “percent loss of cell viability” value is on record as 94.42^± % in series [2] (clarified saliva, PIC+ (Table 1)); 0.00% in series [2] (clarified saliva, PIC− (Table 1)); 99.80^± % in series [3] (PIC+); 0.00% in series [3] (PIC−).
